According to PMC13129536 (The Journal of Biological Chemistry, 2026):

System: Mtb (mc^26030)
Type: cell-based, Mycobacterium tuberculosis
Settings: combined with meropenem

Compound	FICA (apparent FIC)
Cc1ccc(C)c(Nc2nc(NCc3ccccc3)c3ccccc3n2)c1 [Compound F0909-0124]	greater than 5.0
c1ccc(-c2nc3cc(Cc4ccc5[nH]c(-c6ccccn6)nc5c4)ccc3[nH]2)nc1 [Compound F0850-5995]	greater than 5.0
